# Reference: PubChem BioAssay AID1745844 (Carcinogenic Potency Database (CPDB), 2022)
# Active and inactive are the calls of the source. The rule behind the calls is not given here.
# Test system: rodent lifetime carcinogenesis bioassay, tumor incidence TD50
# Assay: carcinogenic potency in animals, long-term in vivo studies, CPDB compilation (AID 1745844)
smiles,measurement,setting,value
C#C[C@]1(C(C)=O)CC[C@H]2[C@@H]3CCC4=C[C@@H](C(C)=O)CC[C@@H]4[C@H]3CC[C@@]21C (tested in a mixture with another compound),TD50,"mouse, strain (C3H x RIII)F1 (MTV+), females, in feed, site: mammary tissue, wider than the gland, lesion: one or several types, types not named, dosed 104 weeks, study length 104 weeks",0.858 mg/kg/day
same,TD50,"mouse, strain (C3H x RIII)F1 (MTV+), males, in feed, site: mammary tissue, wider than the gland, lesion: one or several types, types not named, dosed 104 weeks, study length 104 weeks",0.3 mg/kg/day
NNCc1ccccc1,TD50,"mouse, strain Swiss albino, females, in drinking water, site: liver, lesion: angiosarcoma, dosed 121 weeks, study length 121 weeks",252 mg/kg/day (inactive)
same,TD50,"mouse, strain Swiss albino, females, in drinking water, site: liver, lesion: several types, types named in the paper, dosed 121 weeks, study length 121 weeks",304 mg/kg/day
same,TD50,"mouse, strain Swiss albino, females, in drinking water, site: lung, lesion: several types, types named in the paper, dosed 121 weeks, study length 121 weeks",85.3 mg/kg/day
same,TD50,"mouse, strain Swiss albino, males, in drinking water, site: liver, lesion: several types, types named in the paper, dosed 100 weeks, study length 100 weeks",86.2 mg/kg/day
same,TD50,"mouse, strain Swiss albino, males, in drinking water, site: lung, lesion: adenoma, dosed 100 weeks, study length 100 weeks",711 mg/kg/day (inactive)
CCCCCN(N=O)C(=N)N[N+](=O)[O-],carcinogen call,"rat, strain Wistar, males, in drinking water, site: stomach, glandular, lesion: one or several types, types not named, dosed 52 weeks, study length 78 weeks",negative (inactive)
Nc1nc(-c2ccc([N+](=O)[O-])cc2)cs1,TD50,"mouse, strain Swiss, females, in feed, site: all sites, lesion: lymphocytic leukemia, dosed 46 weeks, study length 66 weeks",9.95 mg/kg/day
same,TD50,"mouse, strain Swiss, females, in feed, site: any site (literature study), lesion: several types, types named in the paper, dosed 46 weeks, study length 66 weeks",9.95 mg/kg/day
O=NN1CC(=O)NC1=O,TD50,"rat, strain MRC-Wistar, females, in drinking water, site: any site (literature study), lesion: several types, types named in the paper, dosed 52 weeks, study length 110 weeks",19.6 mg/kg/day
same,TD50,"rat, strain MRC-Wistar, males, in drinking water, site: any site (literature study), lesion: several types, types named in the paper, dosed 52 weeks, study length 110 weeks",7.31 mg/kg/day
same,TD50,"rat, strain MRC-Wistar, males, in drinking water, site: forestomach, lesion: squamous-cell papilloma, dosed 52 weeks, study length 110 weeks",27.8 mg/kg/day
same,TD50,"rat, strain MRC-Wistar, males, in drinking water, site: pharynx, lesion: squamous-cell carcinoma, dosed 52 weeks, study length 110 weeks",43.8 mg/kg/day
CCCCCCCCCc1ccc(OCCO)cc1,TD50,"mouse, strain B6C3F1, females, in feed, site: liver, lesion: hepatocellular adenoma, dosed 104 weeks, study length 104 weeks",8670 mg/kg/day (inactive)
same,carcinogen call,"mouse, strain B6C3F1, females, in feed, site: liver, lesion: hepatocellular carcinoma, dosed 104 weeks, study length 104 weeks",negative (inactive)
same,carcinogen call,"rat, strain F344/DuCrj, females, in feed, site: liver, lesion: hepatocellular adenoma, dosed 104 weeks, study length 104 weeks",negative (inactive)
same,carcinogen call,"rat, strain F344/DuCrj, females, in feed, site: liver, lesion: one or several types, types not named, dosed 52 weeks, study length 52 weeks",negative (inactive)
CC1CC(=O)O1 (centres undefined),TD50,"rat, strain Eastern Sprague-Dawley, females, by gavage, site: forestomach, lesion: squamous-cell carcinoma, dosed 70 weeks, study length 70 weeks",13.8 mg/kg/day
[Na+],TD50,"mouse, strain B6C3F1, females, in drinking water, site: liver, lesion: hyperplastic nodule, dosed 104 weeks, study length 104 weeks",1.33e+06 mg/kg/day
same,TD50,"mouse, strain B6C3F1, females, in drinking water, site: lung, lesion: papillary tumor, dosed 104 weeks, study length 104 weeks",4980 mg/kg/day
same,TD50,"mouse, strain B6C3F1, males, in drinking water, site: any site (literature study), lesion: several types, types named in the paper, dosed 104 weeks, study length 104 weeks",992 mg/kg/day
same,TD50,"mouse, strain B6C3F1, males, in drinking water, site: liver, lesion: hemangioma, dosed 104 weeks, study length 104 weeks",9550 mg/kg/day
same,TD50,"mouse, strain B6C3F1, males, in drinking water, site: liver, lesion: hyperplastic nodule, dosed 104 weeks, study length 104 weeks",5970 mg/kg/day
same,TD50,"mouse, strain B6C3F1, males, in drinking water, site: lung, lesion: papillary tumor, dosed 104 weeks, study length 104 weeks",3740 mg/kg/day
same,TD50,"rat, strain ACI, males, in feed, site: forestomach, lesion: papilloma, dosed 52 weeks, study length 52 weeks",2660 mg/kg/day
same,carcinogen call,"rat, strain F344/DuCrj, males, in feed, site: forestomach, lesion: one or several types, types not named, dosed 51 weeks, study length 52 weeks",negative (inactive)
same,carcinogen call,"rat, strain F344/DuCrj, males, in feed, site: stomach, glandular, lesion: one or several types, types not named, dosed 51 weeks, study length 52 weeks",negative (inactive)
same,TD50,"rat, strain Fischer 344, males, in feed, site: adrenal medulla, lesion: pheochromocytoma, dosed 104 weeks, study length 104 weeks",2980 mg/kg/day (inactive)
same,carcinogen call,"rat, strain Wistar, males, in feed, site: stomach, glandular, lesion: one or several types, types not named, dosed 82 weeks, study length 82 weeks",negative (inactive)
CCN(N)C=O,TD50,"mouse, strain Swiss albino, females, in drinking water, site: blood vessels, lesion: several types, types named in the paper, dosed 61 weeks, study length 61 weeks",2.49 mg/kg/day
same,TD50,"mouse, strain Swiss albino, females, in drinking water, site: lung, lesion: several types, types named in the paper, dosed 61 weeks, study length 61 weeks",2.52 mg/kg/day
same,TD50,"mouse, strain Swiss albino, males, in drinking water, site: blood vessels, lesion: several types, types named in the paper, dosed 60 weeks, study length 60 weeks",3.55 mg/kg/day
same,TD50,"mouse, strain Swiss albino, males, in drinking water, site: gall bladder, lesion: several types, types named in the paper, dosed 60 weeks, study length 60 weeks",47.4 mg/kg/day
same,TD50,"mouse, strain Swiss albino, males, in drinking water, site: liver, lesion: several types, types named in the paper, dosed 60 weeks, study length 60 weeks",17.7 mg/kg/day
same,TD50,"mouse, strain Swiss albino, males, in drinking water, site: lung, lesion: several types, types named in the paper, dosed 60 weeks, study length 60 weeks",3.19 mg/kg/day
same,TD50,"mouse, strain Swiss albino, males, in drinking water, site: preputial gland, lesion: several types, types named in the paper, dosed 60 weeks, study length 60 weeks",50.8 mg/kg/day
NC(=O)N(CCF)N=O,TD50,"rat, strain Fischer 344, males, by gavage, site: forestomach, lesion: one or several types, types not named, dosed 40 weeks, study length 104 weeks",0.125 mg/kg/day
same,TD50,"rat, strain Fischer 344, males, by gavage, site: lung, lesion: several types, types named in the paper, dosed 40 weeks, study length 104 weeks",0.279 mg/kg/day
